Test [1] deals with pPAK4(S474)/pPAK5(S602)/PAK6(S560) in MDA-MB-231 cells. Nature of the test: pPAK immunoblot. The format is cell-based, human. Particulars: 0.3 and 1 μM, up to 3 h incubation. In general terms: Immunoblotting shows a protein as a band on a membrane.
The test system of a further test is MCF10A cells. Nature of the test: Spheroid formation, hanging drop method. The class given is cell-based. The protocol:
(§1) FIG. 6: IODVA1 inhibits cell-substratum and cell-cell interactions. (A) IODVA1 impedes spreading of MCF7 and MDA-MB-231 cells on fibronectin. MCF7, T47D, and MDA-MB-231 cells were incubated on fibronectin coated coverslips for 10 min, then further incubated with the indicated concentrations of IODVA1 for 30 min in serum-free media, fixed and observed by bright field microscopy. Areas of single cells were calculated from 6 random fields (no less than 300 cells total per treatment group). Results shown are mean±s.e.m. of a single experiment and are representative of three independent experiments. (B) Effects of IODVA1 treatment on spheroid formation in MCF10A, MCF7, T47D, and MDA-MB-231 cells. Left panel—representative bright field images of hanging drop cultures of MCF10A, MCF7, T47D, and MDA-MB-231 cells grown in the absence (0 μM) and presence of IODVA1 (1 μM) prior to and post mechanical pipetting (trituration). Scale bar=200 μm. Right panel, changes in spheroid/aggregate size due to IODVA1 treatment indicated by the diameter of the spheroids. Results shown are mean±stdev, N=15. (C) IODVA1 treatment reduces proliferation capacity in adhesion-free environment. MCF7, T47D, and MDA-MB-231 cells were grown in complete media in the presence of IODVA1 or vehicle control in ultra-low attachment plates for 5 days. Aggregates and spheroids were dissociated with accutase and trituration, and the number of live cells was determined by trypan blue exclusion. Results shown are combined mean±stdev of two independent experiments. n.s.—not significant, *-p<0.05, **-p<0.01, ***-p<0.001, ****-p<0.0001.
(§2) In vitro 3D assays, such as spheroid formation, serve as an intermediate between 2D (monolayer) cellular assays and in vivo animal models. Spheroid formation is mediated by matrix development and remodeling and changes in the cytoskeleton and cell-cell contacts and adhesion. To evaluate the effect of IODVA1 on spheroid formation, single cell suspension were plated in complete media containing vehicle control or IODVA1 at 0.1-3 μM range using the hanging drop and ultra-low attachment (ULA) methods (Foty R. 2011). […]
(§3) Spheroids were formed by the hanging drop method or using ultra-low attachment (ULA) plates (Corning). […] Spheroid formation was monitored daily and imaged using EVOS microscope (Life Technologies). For assessment of attachment-free proliferation, the contents of the well were transferred into an Eppendorf tube, centrifuged at 100×g for 5 min, dissociated into a single cell suspension using trituration and Accutase (Invitrogen) treatment at room temperature and counted using trypan blue exclusion.

The subject of another test is MCF7 cells. The test can be described thus: Spheroid formation, hanging drop method. The class given is cell-based. Particulars: 1 μM. The protocol: as §1, §2, §3
The test system of another test is T47D cells. The test can be described thus: Spheroid formation, hanging drop method. The class given is cell-based. Particulars: 1 μM. As to the method:
as §1, §2, §3

For test [2], the system named is pVav3 in MDA-MB-231 xenograft tumors. Nature of the test: Immunohistochemistry of pVav3 in xenograft tumors. The arrangement: species or system mice. Particulars: mouse, in vivo. As to the method: FIG. 16: IODVA1 decreases levels of pVav3 in in vitro and in vivo models of triple negative breast cancer. (A) Immunoblot and quantification of Vav3 protein in lysates of MDA-MB-231 triple negative breast cancer cells stably expressing scrambled or Vav3-targeting shRNAs. Viability of the MDA-MB-231 cells stably expressing shVav3 in the presence of IODVA1 (0-1 μM). Cells were grown in the presence of IODVA1 and counted by trypan blue exclusion at the indicated time points. (B) MDA-MB-231 cells were incubated with IODVA1 (3 μM) for 15 min and the levels of phosphorylated Vav3 (pY173) were assessed by immunoblotting. (C) Immunohistochemical staining of phosphorylated Vav3 in tissue derived from MDA-MB-231 xenografts treated with vehicle control or IODVA1.
To test if IODVA1 inhibits Vav3 in vivo, we took advantage of the MDA-MB-231 xenograft tumors we generated (FIG. 8A) and stained them by immunohistochemistry for pVav3.
Embedded tissues were cut into 4 μm sections then immunohistochemically stained using the Mouse on Mouse kit (MoM kit, Vector Laboratories). Tissue sections were subjected to sodium citrate antigen retrieval, pretreated with 0.3% hydrogen peroxide, blocked according to kit directions, and incubated with an antibody to phosphorylated Vav3 (1:200 dilution, Abcam) and HRP-conjugated anti-rabbit secondary (Vector Laboratories). […]

The text below walks through data of patent US11564913B2, “Compositions and methods for treating cancer” (Children's Hospital Medical Center, priority 2019, dated 2023).

Turning to `OC1(c2ccccn2)N=C(Nc2nc3ccccc3[nH]2)N=C1c1ccccn1` (stereo not drawn) [IODVA1, (Z)-2-((1H-benzo[d]imidazol-2-yl)imino)-4,5-di(pyridin-2-yl)-2,5-dihydro-1H-imidazol-5-ol], the “levels of pPAK4/5/6” value in test [1] is recorded as “did not change”. Besides, the effect on spheroids entry in the test with MCF10A cells is on record as “No effect”. The “spheroids after mechanical disruption by pipetting” value with MCF7 cells was “complete dissociation”. In addition, the spheroid size result in the test on MCF7 cells (96 h) is given as “formed smaller spheroids”. The spheroid formation entry in the test with T47D cells is “failed to form packed spheroids”. Also, in test [2], the “pVav3 staining of tumor sections versus vehicle control” value is given as “significant decrease”.
